{"source": "patent US12048705B2", "about": "“Immunoablative therapies” (AVM Biotechnology, LLC, priority 2018, dated 2024)", "key": {"[1]": {"tested_on": "peripheral blood lymphocytes", "test": "Repeat of Hinrichs dexamethasone dosing, peripheral blood lymphocytes by flow cytometry", "assay_type": "in vivo", "parameters": "reduction of Tregs / reduction of NK cells / reduction of CD3+ T lymphocytes / reduction of CD3+CD4+ T lymphocytes / reduction of CD3+CD8 T lymphocytes: concentration or dose not given beside the values"}, "germinal centers": {"tested_on": "germinal centers", "test": "Germinal centers in mouse spleen, FITC-PNA immunofluorescence", "assay_type": "in vivo", "conditions": "HED", "experimental": "FIG. 2. […] A graph of column plots of average Germinal Center staining intensity measured using immunofluorescent staining of fresh thick spleen sections stained with FITC-PNA is shown. Immunofluorescent intensity was calculated using thresholding and MetaMorph Image Analysis. Columns are average plus SEM.\nThe spleens were removed, weighed wet, and then fixed in 10% formalin. Subsequently the spleens were sectioned via proprietary methods and then incubated with FITC-PNA at 4 degC for 24 hours, washed, placed on slides and immunofluorescent images were captured. Metamorph software was used to quantify the immunofluorescent signal."}, "[2]": {"tested_on": "marginal zone and germinal centers of the spleen", "test": "Rat spleen marginal zone width (H&E) and germinal center area (BCL-6 staining)", "assay_type": "in vivo", "conditions": "IV or PO, 48 hours", "protocol": "Column plots of the area per spleen of BCL-6 staining of 5 micron fixed spleen sections as a measure of germinal center numbers given as average per section are shown.\nFormalin-fixed spleens were cross-sectioned in 5 pieces, trimmed and embedded in paraffin, sectioned and stained with hematoxylin and eosin (H&E). Measurements of the periarteriolar lymphoid sheath (PAL) diameter and the width of the marginal zone (MZ) in areas of white pulp that had PAL with the greatest diameter were measured using an ocular micrometer. BCL-6 immunohistochemical staining in rat spleens was evaluated to determine GC area using automated image analysis methods."}, "lymphocytes, neutrophils": {"tested_on": "lymphocytes, neutrophils", "test": "Rat complete blood count 48 hours after IV or PO dexamethasone", "assay_type": "in vivo", "conditions": "male Lewis rats", "experimental": "FIG. 7. […] Data in FIGS. 3, 4, and 6 are from the same rats. […] Oral (left) and IV (right) doses were administered 1×48 hours before blood withdrawal."}, "IL-2, IL-15, IL-6": {"tested_on": "IL-2, IL-15, IL-6", "conditions": "oral 3 mg/kg, 48 hours", "experimental": "Blood was drawn before drug treatment and 48 hours post-treatment for CBC analysis and flow cytometry to determine lymphocyte and other blood cell populations. Serum was analyzed for cytokine levels."}, "[3]": {"test": "Double-blind controlled horse trial, adverse effects", "assay_type": "in vivo", "conditions": "acute high dose; out to 70 days"}, "A20 B cell lymphoma": {"tested_on": "A20 B cell lymphoma", "test": "A20 B cell lymphoma mouse model, tumor volume", "assay_type": "in vivo", "conditions": "15 mg/kg HED on days 7, 10, 18, 23, 24, 28, 35, 42", "protocol": "(§1) In the present study, mice were housed, inoculated and treated in the same way as reported in the Bascus et al. (2016) study. […] Tumor volume (mm^3) was measured every 2-3 days."}, "[4]": {"test": "Clinical chemistries in mice after acute oral doses", "assay_type": "in vivo, mouse"}, "[5]": {"tested_on": "multiple myeloma and other cancer cell lines", "test": "Direct tumor killing of cancer cell lines", "assay_type": "cell-based", "conditions": "about 1.6 mg/kg HED in a 48 hour period; maintained but not increased up to about 12 mg/kg HED"}, "[6]": {"tested_on": "peripheral blood lymphocytes", "protocol": "Each patient's pre-treatment values are connected to post-treatment values by a connecting line.\nEach patient's pre-treatment values are connected to post-treatment values by a connecting line. […] HSCs are identified by being CD34+CD38−.\nBlood was drawn before drug treatment and 48 hours post-treatment for CBC analysis and flow cytometry to determine lymphocyte and other blood cell populations. […] For one patient, pre-treatment CBCs were not drawn and thus normalized flow cytometry data is shown for only 3 patients."}, "[7]": {"conditions": "mouse, in vivo", "protocol": "To another group of mice Cy was administered IP at 166 mg/kg (HED 500 mg/m2) on day −5 and day −4 and Fludarabine 10 mg/kg (HED 30 mg/m2) on days −5, −4, −3, −2."}, "[8]": {"conditions": "mouse, in vivo, 15 mg/kg"}, "[9]": {"conditions": "HED, cited from earlier work"}, "[10]": {"test": "A20 B cell lymphoma mouse model, toxicity (body weight, deaths)", "conditions": "15 mg/kg dexamethasone base HED", "protocol": "as §1"}, "hematopoietic stem cells": {"tested_on": "hematopoietic stem cells", "test": "Live hematopoietic stem cells in naive mice 48 hours after treatment", "conditions": "high doses"}, "[11]": {"test": "A20 tumor bearing mice, cell counts by CBC analyzer and chemistry (Table 2)", "conditions": "A20 tumor bearing male mice, 15 mg/kg HED on day 28, animals 12 and 7"}, "[12]": {"tested_on": "peripheral blood lymphocytes", "test": "Mouse complete blood count and flow cytometry 24-48 hours after oral dexamethasone", "description": "CD3 and CD4 positive lymphocytes. […] Relative counts/ul=flow cytometry and complete blood count combined. […] Doses are shown as HED (human equivalent dose). A one-way ANOVA followed by Tukey's test was incorporated to determine statistical significance between the treatment groups; * p<0.05, ** p<0.01, *** p<0.001.\nTreg lymphocytes were identified by being CD3+CD4+CD25+FoxP3+. Relative counts/ul=flow cytometry and complete blood counts combined. […] Doses are shown as HED (human equivalent dose). A one-way ANOVA followed by post-hoc Tukey's test was incorporated to determine statistical significance between the treatment groups; * p<0.05, ** p<0.01.\nNK cells were identified by being CD3−CD49b+. B lymphocytes were identified by being CD3−B220+. Relative counts/ul=flow cytometry and complete blood counts combined. […] Doses are shown as HED (human equivalent dose). A one-way ANOVA followed by post-hoc Tukey's test was incorporated to determine statistical significance between the treatment groups; * p<0.05, ** p<0.01; *** p<0.001.\nCells/ul=absolute numbers obtained from complete blood counts (CBC). […] Doses are shown as HED (human equivalent dose).\nCells/ul=absolute numbers obtained from CBC. […] Doses are shown as HED (human equivalent dose)."}, "[13]": {"conditions": "human, in vivo; cited from earlier work"}, "B lymphocytes": {"tested_on": "B lymphocytes", "test": "Treatment of patients with autoimmune diseases (paper examples 5 and 9)", "assay_type": "in vivo, human", "conditions": "acute high dose, patient with an autoimmune disease", "experimental": "Acute high dose prednisone doses range from about 19 mg/kg to about 150 mg/kg, with doses between about 56 mg/kg and about 112 mg/kg being preferred, with a repeat (second) administration of this dose 24 hours later and an optional repeat (third) administration of this dose 48-72 hours after the initial dose."}, "[14]": {"conditions": "in vivo; cited from earlier work"}, "[15]": {"tested_on": "spleen weights, germinal centers", "conditions": "mice, po daily for 13 weeks; cited from earlier work"}, "[16]": {"conditions": "oral, 12 mg/kg HED group vs placebo, 24-48 hours"}}, "note": "Values joined by “and” are separate entries in the source; they are usually repeats but may differ in a detail not shown here. Equal values may be shown once. Read-outs that look alike come from different tables or passages of the source. Marks after values point to notes of the source that are not given here.", "data": [{"compound": "C[C@@H]1C[C@H]2[C@@H]3CCC4=CC(=O)C=C[C@]4(C)[C@@]3(F)[C@@H](O)C[C@]2(C)[C@@]1(O)C(=O)CO", "note": "[dexamethasone]", "values": [{"measurement": "CD3+ T lymphocytes, live events", "setting": "[1]; intraperitoneal 10 mg/kg (HED 0.81 mg/kg) on day −6, −4, −2, vehicle 3370", "result": 2441, "unit": "live events"}, {"measurement": "CD3-CD19+ B lymphocytes in the peripheral blood, live events by flow cytometry", "setting": "[1]; intraperitoneal 10 mg/kg (HED 0.81 mg/kg) on day −6, −4, −2, vehicle control 10680", "result": 3733, "unit": "live events"}, {"measurement": "reduction of B lymphocytes", "setting": "[1]; intraperitoneal 10 mg/kg (HED 0.81 mg/kg) on day −6, −4, −2, vs vehicle, significant", "result": 65, "unit": "%"}, {"measurement": "reduction of CD3+ T lymphocytes", "setting": "[1]; same dosing, non-significant", "result": 33, "unit": "%"}, {"measurement": "reduction of CD3+CD4+ T lymphocytes", "setting": "[1]; same dosing, non-significant", "result": 50, "unit": "%"}, {"measurement": "reduction of CD3+CD8 T lymphocytes", "setting": "[1]; same dosing, non-significant", "result": 3, "unit": "%"}, {"measurement": "reduction of NK cells", "setting": "[1]; same dosing, non-significant", "result": 17, "unit": "%"}, {"measurement": "reduction of Tregs", "setting": "[1]; same dosing, non-significant", "result": 65, "unit": "%"}, {"measurement": "CD3+CD4+CD25+FoxP3+ Tregs, live events", "setting": "[1]; same dosing, vehicle 198", "result": 70, "unit": "live events"}, {"measurement": "CD3+CD8 T lymphocytes, live events", "setting": "[1]; same dosing, vehicle 1318", "result": 1277, "unit": "live events"}, {"measurement": "CD3+CD4+ T lymphocytes, live events", "setting": "[1]; same dosing, vehicle 1779", "result": 902, "unit": "live events"}, {"measurement": "acute dose from which germinal centers are reduced", "setting": "germinal centers", "result": "≥ 6", "unit": "mg/kg"}, {"measurement": "acute dose from which germinal centers are reduced", "setting": "germinal centers; listed as Dexamethasone", "result": "≥ 3", "unit": "mg/kg"}, {"measurement": "dose of maximal inhibition of germinal center area", "setting": "[2]", "result": 12.9, "unit": "mg/kg HED"}, {"measurement": "dose of maximal inhibition of marginal zone", "setting": "[2]", "result": 12.9, "unit": "mg/kg HED"}, {"measurement": "RBCs, platelets, Hct, HgB", "setting": "lymphocytes, neutrophils", "result": "not affected"}, {"measurement": "neutrophil number", "setting": "lymphocytes, neutrophils; all doses", "result": "increased by all doses"}, {"measurement": "IL-6 level", "setting": "IL-2, IL-15, IL-6", "result": "not elevated in any patient"}, {"measurement": "patients with increased serum IL-2 and/or IL-15 levels", "setting": "IL-2, IL-15, IL-6", "result": 100, "unit": "%"}, {"measurement": "adverse side effects", "setting": "[3]", "result": "no adverse side effects were observed"}, {"measurement": "efficacy in terms of tumor volume control compared with CHOP", "setting": "A20 B cell lymphoma", "result": "greater than 1 cycle of CHOP, but not quite as effective as 2 cycles of CHOP"}, {"measurement": "clinical chemistry levels including cholesterol and total protein", "setting": "[4]; acute oral doses, HED 6-12 mg/kg", "result": "do not elevate clinical chemistry levels out of normal range"}, {"measurement": "glucose level", "setting": "[4]; after acute high dose", "result": "not elevated over the normal range"}, {"measurement": "direct tumor killing", "setting": "[5]", "result": "about 50%"}, {"measurement": "patients showing lymphocytosis", "setting": "[6]; 3 mg/kg HED", "result": 50, "unit": "%"}, {"measurement": "hematopoietic stem cells (CD34+CD38−)", "setting": "[6]; human, in vivo, po, 3 mg/kg", "result": "spared"}, {"measurement": "body weight as a general measure of toxicity", "setting": "[7]", "result": "did not impact body weight"}, {"measurement": "CRE", "setting": "[8]", "result": 0.5}, {"measurement": "GGT", "setting": "[8]", "result": 0}, {"measurement": "NRBC", "setting": "[8]", "result": "0*"}, {"measurement": "lowest lethal dose", "setting": "[9]; healthy mice", "result": 114, "unit": "mg/kg"}, {"measurement": "lowest lethal dose", "setting": "[9]; tumor bearing mice", "result": 43, "unit": "mg/kg"}, {"measurement": "mice that died from the treatment", "setting": "[10]", "result": "no mice died"}, {"measurement": "number of live hematopoietic stem cells", "setting": "hematopoietic stem cells", "result": "did not significantly alter"}, {"measurement": "BAS %", "setting": "[11]", "result": 0, "unit": "%"}, {"measurement": "EOS %", "setting": "[11]", "result": 0, "unit": "%"}, {"measurement": "Meta %", "setting": "[11]", "result": 0, "unit": "%"}, {"measurement": "BASCT", "setting": "[11]; 15 mg/kg", "result": "38 and 57"}, {"measurement": "CA", "setting": "[11]; 15 mg/kg", "result": "9.9 and 10.0"}, {"measurement": "EOSCT", "setting": "[11]; 15 mg/kg", "result": "158 and 92"}, {"measurement": "LYM %", "setting": "[11]; 15 mg/kg", "result": "30% and 53%"}, {"measurement": "MON %", "setting": "[11]; 15 mg/kg", "result": "0% and 3%"}, {"measurement": "NEU %", "setting": "[11]; 15 mg/kg", "result": "70% and 44%"}, {"measurement": "NEUCT", "setting": "[11]; 15 mg/kg", "result": "550 and 280"}, {"measurement": "TP", "setting": "[11]; 15 mg/kg", "result": "5.5 and 5.4"}, {"measurement": "WBC", "setting": "[11]; 15 mg/kg", "result": "860 and 1150"}, {"measurement": "reduction in CD4+, CD8+, Tregs and B cells population", "setting": "[12]; naive mouse and rat models, high doses, 48 hours after administration, preliminary", "result": "~98", "unit": "%"}, {"measurement": "HED dose giving almost complete lymphoablation", "setting": "[12]; normal mice, oral", "result": "greater than 12 mg/kg"}, {"measurement": "absolute neutrophils", "setting": "[12]; oral HED 3-17.5 mg/kg, 24-48 hours", "result": "does not affect"}, {"measurement": "absolute RBCs and platelets", "setting": "[12]; oral HED 3-17.5 mg/kg, 48 hours", "result": "does not affect"}, {"measurement": "reduction in B lymphocytes (CD3−B220+)", "setting": "[12]; [16]", "result": 83, "unit": "%"}, {"measurement": "reduction in CD3+ T lymphocytes", "setting": "[12]; [16]", "result": 65, "unit": "%"}, {"measurement": "reduction in CD4+ T lymphocytes", "setting": "[12]; [16]", "result": 75, "unit": "%"}, {"measurement": "reduction in CD8+ T lymphocytes", "setting": "[12]; [16]", "result": 56, "unit": "%"}, {"measurement": "reduction in NK cells (CD3−CD49b+)", "setting": "[12]; [16]", "result": 87, "unit": "%"}, {"measurement": "reduction in Tregs (CD3+CD4+CD25+FoxP3+)", "setting": "[12]; [16]", "result": 78, "unit": "%"}, {"measurement": "reduction in absolute lymphocyte count", "setting": "[12]; oral, C57B1 male mice vs placebo, 24 to 48 hours, dose group not stated", "result": 84, "unit": "%"}]}, {"compound": "alemtuzumab: anti-CD52 lymphocyte depletional agent", "values": [{"measurement": "patients who developed (primarily thyroid) autoimmunity", "setting": "[13]", "result": "two thirds"}]}, {"compound": "C[C@]12C=CC(=O)C=C1CC[C@@H]1[C@@H]2C(=O)C[C@@]2(C)[C@H]1CC[C@]2(O)C(=O)CO", "note": "[prednisone]", "values": [{"measurement": "reduction of B lymphocyte numbers", "setting": "B lymphocytes", "result": "greater than 90%"}, {"measurement": "reduction of memory B cell populations", "setting": "B lymphocytes", "result": "greater than 90%"}, {"measurement": "biologic half-life", "setting": "[14]", "result": "about 20 hours"}, {"measurement": "dose above which spleen weights or germinal centers are significantly impacted", "setting": "[15]", "result": "over 2.5 mg/kg"}]}]}
